According to patent US9872493B2, “Method for promoting plant growth” (SUMITOMO CHEMICAL COMPANY, LIMITED, priority 2012, dated 2018):

Key:
[1] = test system: Rice (Variety: Nipponbare); experiment: Test for evaluating promotion of root growth by hydroponics of rice (Test Examples 1-3); format: in vivo; settings: 1 ppm
Description: Rice (Variety: Nipponbare)
(§1) A DMSO solution, which contained one of the compounds 14, 18, 21, 23, 26, 28, 29, 30, 35, 36, 37, 39 and 40 of the present invention at a concentration of 100,000 ppm, was added to Hoagland hydroponic solution (Hoagland and Arnon, California Agricultural Experiment Station 1950 Circular 347 pp. 34) of ¼-fold concentration at a volume ratio of 1/10,000. In this manner, hydroponic solutions containing one of the compounds 14, 18, 21, 23, 26, 28, 29, 30, 35, 36, 37, 39 and 40 of the present invention at 10 ppm were prepared respectively. As an untreated control plot, a hydroponic solution obtained by adding DMSO to Hoagland hydroponic solution of ¼-fold concentration at a volume ratio of 1/10,000 was used.
(§2) Rice seeds were soaked in a 1% aqueous sodium hypochlorite solution for 10 minutes, then soaked in a 70% ethanol solution for surface sterilization, and then washed with distilled water. The sterilized seeds were soaked in a hydroponic solution containing the test compound described above at 10 ppm and incubated in a dark place for 3 days at 28° C. to perform treatment for hastening germination.
(§3) Thereafter, 30 ml of hydroponic solution containing the test compound at 10 ppm was dispensed in a plastic tube (diameter of 20 mm×height of 113 mm) of which the side was covered with cardboard to block light. A float prepared using a styrene board and vinyl mesh was floated, and the rice seeds that had undergone the treatment for hastening germination were placed on the float on the surface of the hydroponic solution. The seeds were cultivated for 3 days at 26° C., an illuminance of 4,000 lux of the top surface of the tube, a humidity of 50%, and a day length of 16 hours.
The nursery plants of rice obtained after cultivating were measured in terms of the length of seminal root by using WinRHIZO system (manufactured by Regent Instruments Inc). For each test plot, an average of the measured values of the seminal root of 4 or 5 individuals were determined.
as §1, with “compounds 7, 8, 9, 10, 12, 17, 20,” for “compounds 14, 18,”, “21, 25, 27,” for “21, 23, 26,”, “30, 34,” for “30,”, “37, 38,” for “37,”, “of 10,000” for “of 100,000”, “at 1” for “at 10”
as §2, with “at 1” for “at 10”
as §3, with “1” for “10”
The nursery plants of rice obtained after cultivation were measured in terms of the length of seminal root by using WinRHIZO system (manufactured by Regent Instruments Inc). […]

Nicotiana benthamiana = experiment: Test for evaluating growth promotion under low-temperature stress by hydroponics of Nicotiana benthamiana (Test Examples 4-6); format: in vivo; settings: compound at 1 ppm, 7 days at 1.5±1.0° C. low-temperature stress, then 3 days at 22° C., green leaf area vs untreated control, read-out: value of a relative leaf area (equation (1))
Description: A DMSO solution, which contained one of the compounds 5, 14, 22, 23, 24, 25, 26, 28, 30, 31, 32, 33, 34, 35, 38, 39 and 40 of the present invention at a concentration of 10,000 ppm, was prepared. The DMSO solution of the compound of the present invention was added at a volume ratio of 1/1,000 to the Murashige•Scoog medium of a ½-fold concentration (a medium containing 2.3 g of mixed salts (manufactured by Wako Pure Chemical Industries, Ltd.), 200 mg of Myo-inositol (manufactured by Sigma-Aldrich Co. LLC.), 2 mg of nicotinic acid (manufactured by Wako Pure Chemical Industries, Ltd.), 2 mg of pyridoxine hydrochloride (manufactured by Wako Pure Chemical Industries, Ltd.), 20 mg of thiamine hydrochloride (manufactured by Wako Pure Chemical Industries, Ltd.), 20 g of sucrose (manufactured by Wako Pure Chemical Industries, Ltd.), and 1 g of MES (manufactured by DOJINDO LABORATORIES) per 1 L of water and having pH adjusted to 5.8), thereby preparing a medium containing the compound of the present invention at a concentration of 10 ppm.
Seeds of Nicotiana benthamiana were seeded in the 5 μL of the medium and cultured overnight at 22° C. Thereafter, 45 μL of the medium containing the compound of the present invention at a concentration of 10 ppm was added thereto, and the seeds are cultivated for 7 days at 22° C., an illuminance of 4,000 lux, and a day length of 16 hours, thereby the nursery plants raised from the Nicotiana benthamiana were treated with the compound.
Moreover, instead of the above medium a test plot, which was obtained by performing the same treatment by using a medium prepared by adding DMSO to the Murashige•Scoog medium of ½-fold concentration at a volume ratio of 1/1,000, was used as a control plot not treated with the compound.
The nursery plants of the Nicotiana benthamiana treated with the compound were subjected to low-temperature treatment by being cultivated for 7 days at 1.5±1.0° C., an illuminance of 2,000 lux, and a day length of 16 hours.
The nursery plants of the Nicotiana benthamiana having undergone the low-temperature stress treatment were cultivated for 3 days at 22° C., an illuminance of 4,000 lux, and a day length of 16 hours. Thereafter, the area of green leaf was quantified by Scanalyzer HTS (manufactured by LemnaTec GmbH). Moreover, the value of the control plot not treated with the compound that had not yet been subjected to the low-temperature stress treatment was measured in the same manner. A value of a relative leaf area was calculated based on the following equation (1), and if the value of a relative leaf area was 5 or greater, the compound was evaluated to have a mitigating effect. As a result of the evaluation, it was confirmed that when the plant was treated with one of the compounds 5, 14, 22, 23, 24, 25, 26, 28, 30, 31, 32, 33, 34, 35, 38, 39 and 40 of the present invention at 10 ppm, the value of a relative leaf area was 5 or greater, compared to the area of green leaf of the control plot not treated with compound. Accordingly, it was confirmed that the treatment using the compound of the present invention brings about a growth promotion effect. Relative leaf area=100*(a green area of a plot treated with the compound of the present invention−a green area of a control plot not treated with the compound of the present invention)/(a green area of a control plot not treated with the compound of the present invention that has not yet been subjected to low-temperature stress treatment−a green area of a control plot not treated with the compound of the present invention) Equation (1): […]
A DMSO solution, which contained one of the compounds 6, 7, 8, 11, 12, 15, 19, 23, 24, 25, 28, 30, 31, 33, 34, 36, 37, 38 and 39 of the present invention at a concentration of 1,000 ppm, was prepared. […]

COC(=O)c1csc2ccccc12 [Compound 12, methyl benzo[b]thiophene-3-carboxylate]
length of seminal root compared with the untreated control plot (in words) [1]: obviously longer
relative green leaf area after low-temperature stress at 1 ppm (Nicotiana benthamiana): ≥ 5%
